Measured values as given in PubChem BioAssay (NCI).
“And” between values parts separate entries of the source, which are not always exact repeats. Equal entries are not always repeated.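 Grown in 96-well plates, cells were treated for 48 hours with each compound at five concentrations. Insufficient inhibition: endpoint recorded as highest concentration tested. GI50 is the concentration that inhibits growth by half. The concentration for full growth arrest is given as TGI.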

Legend:
Assay in all cases: DTP human tumour cell line panel, 48 h
HL-60(TB) leukemia = test system: HL-60(TB) leukemia
MDA-MB-435 = test system: MDA-MB-435
PC-3 prostate = test system: PC-3 prostate
RPMI-8226 leukemia = test system: RPMI-8226 leukemia
SF-295 CNS = test system: SF-295 CNS
SK-MEL-2 melanoma = test system: SK-MEL-2 melanoma
SK-MEL-28 melanoma = test system: SK-MEL-28 melanoma
SK-OV-3 ovarian = test system: SK-OV-3 ovarian
SR leukemia = test system: SR leukemia
TK-10 renal = test system: TK-10 renal

Row | SMILES | GI50 (HL-60(TB) leukemia) [µM] | TGI (HL-60(TB) leukemia) | GI50 (MDA-MB-435) [µM] | TGI (MDA-MB-435) [µM] | GI50 (PC-3 prostate) [µM] | TGI (PC-3 prostate) [µM] | GI50 (RPMI-8226 leukemia) [µM] | TGI (RPMI-8226 leukemia) [µM] | GI50 (SF-295 CNS) [µM] | TGI (SF-295 CNS) [µM] | GI50 (SK-MEL-2 melanoma) [µM] | TGI (SK-MEL-2 melanoma) [µM] | GI50 (SK-MEL-28 melanoma) [µM] | TGI (SK-MEL-28 melanoma) | GI50 (SK-OV-3 ovarian) [µM] | TGI (SK-OV-3 ovarian) | GI50 (SR leukemia) [µM] | TGI (SR leukemia) | GI50 (TK-10 renal) [µM] | TGI (TK-10 renal)
1 | CN(C)CCCC1(c2ccc(F)cc2)OCc2cc(-c3cncc4ccccc34)ccc21 (stereo unspecified) | 1.81 | 4.15 µM | 1.71 | 3.22 | 3.36 | 15 | 2.51 | 5.96 | 2.02 | 4.2 | 2.14 | 4.74 | 1.75 | 3.24 µM | 5.48 | 18.8 µM | 3 | 17.9 µM | 2.83 | 12.2 µM
2 | COc1ccc(-c2cc(/C=C/C(=O)c3cc(OC)c(OC)c(OC)c3)[nH]n2)cc1OC | 1.69 | 14.8 µM | 1.78 | 4.05 | 1.99 | 10.3 | 0.298 | 1.66 | 1.67 | 4.26 | 2.69 | 7.7 | 1.92 | 4.41 µM | 5.47 | 19 µM | 0.22 | 2.26 µM | 3.27 | 11.8 µM
3 | O=C(Nc1ccccc1O)c1ccc(CNC(=O)c2ccsc2Nc2ccnc(C(F)(F)F)c2)cc1 | 2.86 | 9.32 µM | 2.19 | 6.54 | 1.94 | 20.8 | 1.14 | 6.72 | 1.86 | 4.51 | 2.1 | 6.26 | 2.15 | 6.79 µM | 5.59 | 45.6 µM | 2.81 | 29.1 µM | 2.1 | 9.33 µM
4 | O=C(CCN1CCCC1)Nc1ccc2c(Nc3ccccc3)c3ccccc3nc2c1 | 0.264 | 1.61 µM | 1.44 | 2.84 | 0.951 | 3.01 | 0.48 | 1.65 | 0.498 | 1.91 | 1.69 | 3.56 | 1.6 | 3.06 µM | 0.651 | 3.59 µM | 0.0503 | 1.45 µM | 1.28 | 3.78 µM
5 | Cc1cc(NC(=O)NC(=O)c2ccccc2N(C)C)ccc1Oc1ncc(Br)cn1 | 0.0879 | 0.388 µM and 0.981 µM | – | 2.84 | – | > 63.1 | 0.517 | 39.4 | – | 21.8 | – | > 46.4 | – | > 63.1 µM | – | 16.8 µM | 0.135 | – | 0.984 | > 68.1 µM
6 | Cc1ccc(/C=C2\CNC/C(=C\c3ccc(C)cc3)C2=O)cc1 | 1.41 | 6.46 µM and 2.53 µM | – | 19.9 | – | 13.2 | – | 0.69 | – | > 49.2 | 1.9 | – | – | 4.05 µM and 4.83 µM | 3.81 | 6.9 µM and 22.1 µM | 0.565 | 2.87 µM and 1.83 µM | 0.509 | 2.2 µM and 13.9 µM
7 | C[C@@H]1C/C=C\C(=O)O[C@H](/C=C/C#C/C=C/C(C)(C)[C@@H](O)c2cccc(O)c2Br)[C@@H](C)/C=C/[C@H](C)C[C@H](OC(N)=O)C1 | 0.0382 | 2.26 µM | 0.0332 | 12.1 | 0.045 | 17.4 | 0.0411 | 6.45 | 0.0212 | 0.0485 | 0.0346 | 1.01 | 0.278 | 12.9 µM | 13.3 | 27.3 µM | 0.0273 | > 100 µM | 4.28 | 21.6 µM
8 | O=C(Cc1ccc(/C=C/C(=O)c2ncc[nH]2)cc1)Nc1ccc(C(F)(F)F)cc1 | 2.03 | 20 µM | 2.87 | 11.6 | 2.81 | 12.4 | 0.78 | 1.83 | 4.08 | 9.3 | 7.09 | 16.7 | 5.32 | 11.1 µM | 7.66 | 26.3 µM | 0.843 | > 33.3 µM | 6.63 | 13.8 µM
9 | O=C(O)Cn1ccnc1[N+](=O)[O-] | – | > 100 µM | – | > 100 | – | > 100 | – | > 100 | – | > 100 | – | > 100 | – | > 100 µM | – | > 100 µM | – | > 100 µM | – | > 100 µM
10 | CCCCCCCCCCCCCCCCS(=O)(=O)c1ccc(NN)cc1 | – | 6.17 µM | – | > 10 | – | > 10 | – | > 10 | – | > 10 | – | > 10 | – | > 10 µM | – | > 10 µM | – | > 10 µM | – | > 10 µM
11 | C=CC(=O)Nc1cccc(Nc2nc(Nc3ccc(OCCOC(F)F)cc3)ncc2F)c1 | 2.02 | 10.4 µM | 2.21 | 7.22 | 4.01 | 27.1 | 2.48 | 14.7 | 6.04 | 83.4 | 1.8 | 6.82 | 7.36 | > 100 µM | 0.706 | 3.34 µM | 2.88 | > 100 µM | 0.515 | 2.93 µM
12 | c1cnc2[nH]cc(-c3csc(-c4cn(CCCN5CCCCC5)c5ccccc45)n3)c2c1 | 1.88 | 3.74 µM | 1.67 | 3.09 | 1.59 | 3.05 | 2.08 | 4.63 | 1.65 | 3.18 | 2.04 | 4.24 | – | – | 1.8 | 3.36 µM | 1.89 | 3.74 µM | 2.22 | 3.79 µM
13 | Cc1cc(=O)oc2cc(OCCn3c(C)nn(-c4ccc(Cl)cc4)c3=O)ccc12 | – | – | 0.269 | 0.837 | 8.13 | > 100 | 11 | > 100 | 4.73 | > 100 | 18.2 | > 100 | 3.13 | > 100 µM | 3.36 | 48.8 µM | 0.497 | 6.67 µM | 13.4 | 88.4 µM
14 | COc1cc(O)c(C(C)=O)c(O)c1 | – | – | – | > 100 | – | > 100 | – | – | – | > 100 | – | > 100 | – | > 100 µM | – | > 100 µM | – | > 100 µM | – | > 100 µM
